Laboratory results from patent publication US20050239061A1, “Identification and use of effectors and allosteric molecules for the alteration of gene expression” (priority 2000, published 2005).
Where two headings read alike, the source gives them in different places.

Experiments:
[1] = cited from earlier work
[2] = biological target: T1, HIV RT (Human immunodeficiency virus type 1 group M subtype B, UniProt P04585); conditions: cited from earlier work
T1 construct: Atevirdine/nonnucleoside reverse

[3] = cited from earlier work; for Biodistribution: in vivo
[4] = in vivo; cited from earlier work
[5] = system: TA-50 ribozyme; assay: Theophylline-dependent self-cleavage of ribozyme TA-50; assay type: biochemical; conditions: FIG. 9

CCNc1cccnc1N1CCN(C(=O)c2cc3cc(OC)ccc3[nH]2)CC1 [Atevirdine]
Bioavailability ([1]; oral): well absorbed orally | time to peak serum ([1]; oral): 30 to 60 min | Other Pharmacology [2]: Viral target, no other known activity | Biodistribution [3]: Widely distributed, crosses blood-brain | maximum concentration of drug in serum ([3]; oral delivery): delivery): 7.3 uM

Cl.O=C(O)c1cn(C2CC2)c2c(Cl)c(N3C[C@@H]4CCCN[C@@H]4C3)c(F)cc2c1=O [Bay-y-3118]
Bioavailability ([1]; oral): Orally absorbed | Half life ([1]; oral): 11.4 h | Tmax ([1]; oral): 1.3 h | Toxicity/Drug Interactions [4]: No abnormal findings in humans

CN1CCN(c2cc3c(cc2F)c(=O)c(C(=O)O)cn3-c2ccc(F)cn2)CC1.Cl [Fandofloxacin]
Bioavailability ([1]; oral): Orally absorbed | Toxicity/Drug Interactions [4]: Well tolerated, v. low phototoxicity | Biodistribution [3]: Good organ distribution including muscle

Cc1oc(-c2ccccc2)nc1CCOc1ccc(C[C@H](Nc2ccccc2C(=O)c2ccccc2)C(=O)O)cc1 [GW-2570]
Bioavailability ([1]; in vivo, po): Oral | Biodistribution [3]: Muscle and adipose

O=C1NC(=O)C(Cc2ccc3cc(OCc4ccccc4F)ccc3c2)S1 (stereo not shown) [MCC-555]
Bioavailability ([1]; in vivo, po): Oral | Toxicity/Drug Interactions [4]: Liver toxicity (controversial) | Biodistribution [3]: Muscle and adipose

COc1ccc2c(c1)N(C(=O)OC(C)C)[C@@H](CSC)C(=S)N2 [Talviraline]
Other Pharmacology [2]: Viral target, no other known activity | Biodistribution [3]: Wide

CSc1nc2cc(Cl)c(Oc3cccc(Cl)c3Cl)cc2[nH]1 [Triclabendazole]
Bioavailability ([1]; oral): Oral | Toxicity/Drug Interactions [4]: Low/none in humans | Biodistribution [3]: Liver/metabolism important

Cn1c(=O)c2[nH]cnc2n(C)c1=O [theophylline]
Toxicity/Drug Interactions [4]: acceptable | theophylline concentration giving highest cleavage activity of TA-50 ribozyme [5]: 10 to 50 µM

B1: TA-50: theophylline-responsive self-cleaving hammerhead ribozyme sequence selected after seven cycles, SEQ ID NO:5 (nucleic acid)
chain: GGGAGAGGGAUCCAGCUGACGAGUACUGAAUACCAGCCGAAAGGCCCUUGGCAGGUUUGGUGAAACGCCUUCGGCGUCCUGGAUUAGAACUUC
modifications: listed as RNA, chemistry not given here
self-cleaving ability ([5]; presence of theophylline): strongly dependent on the presence of theophylline
